Laboratory results from PMC12589998, “Development and validation of a UHPLC-QqQ-MS/MS method for simultaneous determination of fifteen major components from Oroxyli seed extract in rat plasma and its application in the pharmacokinetic study” (Frontiers in Pharmacology, 2025).
Like-named read-outs stand apart in the source and are kept apart here.

How the values were obtained:
[1] = Stability of the analytes in rat plasma samples under storage conditions; format: physicochemical; details: n = 6
Description: The bioanalytical method validation was evaluated for specificity, linearity, sensitivity, precision and accuracy, recovery, matrix effect, and stability to ensure compliance with the U.S. Food and Drug Administration (FDA) guidance on precise quantitative analysis ([Center for Drug Evaluation and Research of the U.S., 2018]). The assessment of specificity was conducted by comparing the chromatograms obtained from blank plasma, blank plasma spiked with the target components, and samples gathered following the oral administration of OS extract. Calibration curves were constructed by plotting the ratio for the peak area of the analyte to IS versus the concentration, with 1/x^2 serving as the weighting factor. The lower limit of quantification (LLOQ) was defined as the concentration at which a signal to noise ratio of […] 10 was achievable. The evaluation of precision and accuracy involved the analysis of six QC samples, both within a single day and over 3 consecutive days. Accuracy was expressed as the relative error (RE), whereas precision was gauged via relative standard deviation (RSD). Extraction recovery was ascertained by juxtaposing the responses of analytes in extracted samples against those in samples that were spiked post-extraction. The matrix effect was scrutinized by determining the ratio of the responses of the analytes in post-extraction spiked samples to those in the mixed standard solution. The stability of the analytes in plasma samples was explored under diverse conditions: encompassing a 12-h period in an autosampler, a 4-h interval at room temperature, three cycles of freezing–thawing, and a 7-day duration at −80 °C.
The retention times of the analyte peaks were consistent with those in the spiked samples. […] The LLOQs for chrysin, chrysin-7-O-β-D-glucuronide, hispidulin, wogonoside, quercetin, quercetin-7-O-β-D-glucoside, baicalin, baicalein, acacetin, oroxin A, oroxin B, oroxylin A, oroxylin A-7-O-β-D-glucuronide, apigenin, and scutellarein were 1.0, 2.0, 1.0, 0.3, 1.0, 0.1, 9.0, 6.0, 0.3, 6.0, 4.0, 1.0, 2.0, 0.5, and 0.3 ng/mL, respectively. In Supplementary Table S2, the RE for accuracy is between −13.77% and 12.55%, and the RSD for precision is below 14.55% (both intra- and inter-day). […] The matrix effect varied from 60.15% to 115.53%, with RSD values below 10.54%. In Supplementary Table S4, the RSD values for stability of the analytes are found to be lower than 13.98%, meaning that these components were stable under the following conditions: encompassing a 12-h period in an autosampler, a 4-h interval at room temperature, three cycles of freezing and thawing, and a 7-day duration at −80 °C.

[2] = Pharmacokinetic study in rats after oral administration of OS extract (UHPLC-QqQ-MS/MS of plasma); format: in vivo, rat; details: male
Description: The UHPLC-QqQ-MS/MS system consisted of a 1290 UHPLC and a 6470 mass spectrometer (Agilent Technologies). Chromatographic separation was realized on utilizing an ACQUITY UPLC BEH C18 column (2.1 × 100 mm, 1.7 μm) maintained at 35 °C. The mobile phase consisting of 0.1% formic acid in water (A) and acetonitrile (B) was utilized with the elution program set at 0 min–1 min, 5% B–30% B; 1 min–4 min, 30% B– 50% B; 4 min–8 min, and 50% B–90% B. The injection volume was 5 μL, and the flow rate was 0.3 mL/min. The mass spectrometry parameters in the negative ion mode, gas temperature, flow rate, and nebulizer pressure were 300 °C, 7 L/min, and 35 psi, respectively. The mass spectra properties of the 15 analytes and the IS are illustrated in Table 1.
To 100 μL of the plasma sample, 20 μL of methanol, 20 μL of IS solution (methylparaben, 1 μg/mL), and 5 μL of formic acid were added and vortexed for a duration of 2 min. Subsequently, the mixture underwent extraction with 800 μL of acetonitrile for 3 min. Following 10 min of centrifugation at 12,000 g, the supernatant was collected and evaporated to dryness under N2 to obtain the residue. Finally, the residue was reconstituted in 50% methanol (100 μL) and utilized for analysis.
Before initiating the study, six male SD rats underwent a 12-h fasting period, during which they were granted unrestricted access to water. Then, the rats were administered an oral dose of 3 g/kg of the OS extract, which had been dissolved in 0.5% CMC-Na aqueous solution. Blood samples, approximately 200 μL each, were collected at various time points: before administration and at 0.03, 0.08, 0.17, 0.25, 0.5, 0.75, 1, 2, 4, 6, 8, 10, 12, 24, 36, and 48 h post-administration. Following 10 min of centrifugation at 6,000 g, the resultant samples were stored at −80 °C.
The developed method was effectively applied to study the pharmacokinetics in rats following oral administration of the OS extract. […] This was likely due to their low concentrations in the OS extract. Ultimately, nine components (chrysin, chrysin-7-O-β-D-glucuronide, baicalin, baicalein, oroxin A, oroxin B, oroxylin A, oroxylin A-7-O-β-D-glucuronide, and scutellarein) were successfully fitted with pharmacokinetic parameters. The average plasma concentration–time profiles of these substances are depicted in Figure 3. […] All data were presented as the mean ± standard deviation (Mean ± SD).

[3] = spiked concentration 1600 ng/mL
[4] = spiked concentration 6400 ng/mL
[5] = SD, 3 g/kg, rat plasma collected 0.5 h after oral administration of the OS extract, read-out: Concentration printed in MRM chromatogram of plasma sample (Figure 2C)
[6] = rat plasma, oral 3 g/kg OS extract, n = 6, mean ± SD, read-out: AUC(0-t)
[7] = rat plasma, oral 3 g/kg OS extract, n = 6, mean ± SD, read-out: AUC(0-∞)
[8] = rat plasma, oral 3 g/kg OS extract, n = 6, mean ± SD, read-out: Cmax
[9] = rat plasma, oral 3 g/kg OS extract, n = 6, mean ± SD, read-out: T1/2 (converted)
[10] = rat plasma, oral 3 g/kg OS extract, n = 6, mean ± SD, read-out: Tmax

SMILES | Measured, -80°C for 7 days ([1]; spiked concentration 40 ng/mL) [ng/mL] | Measured, Autosampler for 12 h ([1]; spiked concentration 40 ng/mL) [ng/mL] | Measured, Room temperature for 4 h ([1]; spiked concentration 40 ng/mL) [ng/mL] | Measured, Three freeze-thaw cycles ([1]; spiked concentration 40 ng/mL) [ng/mL] | Measured, -80°C for 7 days ([1]; spiked concentration 400 ng/mL) [ng/mL] | Measured, Autosampler for 12 h ([1]; spiked concentration 400 ng/mL) [ng/mL] | Measured, Room temperature for 4 h ([1]; spiked concentration 400 ng/mL) [ng/mL] | Measured, Three freeze-thaw cycles ([1]; spiked concentration 400 ng/mL) [ng/mL] | Measured, -80°C for 7 days [1, 4] [ng/mL] | Measured, Autosampler for 12 h [1, 4] [ng/mL] | Measured, Room temperature for 4 h [1, 4] [ng/mL] | Measured, Three freeze-thaw cycles [1, 4] [ng/mL] | concentration at 0.5 h [2, 5] [ng/mL] | AUC(0-t) [2, 6] [ng·h/mL] | AUC(0-inf) [2, 7] [ng·h/mL] | Cmax [2, 8] [ng/mL] | half-life [2, 9] [min] | Tmax [2, 10] [min] | other results
COc1c(O)cc2oc(-c3ccccc3)cc(=O)c2c1O [Oroxylin A, oroxylin A] |  |  |  |  |  |  |  |  |  |  |  |  |  |  |  |  |  |  | Measured, -80°C for 7 days ([1]; spiked concentration 10 ng/mL): 10.45 ± 0.29 ng/mL; Measured, Autosampler for 12 h ([1]; spiked concentration 10 ng/mL): 10.51 ± 1.15 ng/mL; Measured, Room temperature for 4 h ([1]; spiked concentration 10 ng/mL): 10.16 ± 0.90 ng/mL; Measured, Three freeze-thaw cycles ([1]; spiked concentration 10 ng/mL): 10.69 ± 0.70 ng/mL; Measured, -80°C for 7 days ([1]; spiked concentration 100 ng/mL): 92.00 ± 7.39 ng/mL; Measured, Autosampler for 12 h ([1]; spiked concentration 100 ng/mL): 90.43 ± 9.04 ng/mL; Measured, Room temperature for 4 h ([1]; spiked concentration 100 ng/mL): 92.23 ± 5.62 ng/mL; Measured, Three freeze-thaw cycles ([1]; spiked concentration 100 ng/mL): 88.86 ± 4.67 ng/mL; Measured, -80°C for 7 days [1, 3]: 1720.89 ± 130.14 ng/mL; Measured, Autosampler for 12 h [1, 3]: 1797.17 ± 87.55 ng/mL; Measured, Room temperature for 4 h [1, 3]: 1790.22 ± 78.72 ng/mL; Measured, Three freeze-thaw cycles [1, 3]: 1733.57 ± 149.41 ng/mL; concentration at 0.5 h ([2]; SD, rat, in vivo, po): 165 ng/mL; AUC(0-inf) ([2]; SD, rat, in vivo, po, 3 g/kg): 3010 ng·h/mL; AUC(0-t) ([2]; SD, rat, in vivo, po, 3 g/kg): 2840 ng·h/mL; Cmax ([2]; SD, rat, in vivo, po, 3 g/kg): 512 ± 179 ng/mL; Tmax ([2]; SD, rat, in vivo, po, 3 g/kg): 15 ± 0 min; half-life ([2]; SD, rat, in vivo, po, 3 g/kg): 462 ± 58.2 min
O=c1cc(-c2ccccc2)oc2cc(O)c(O)c(O)c12 [Baicalein, baicalein] | 38.12 ± 3.24 | 39.31 ± 4.16 | 40.41 ± 3.19 | 38.12 ± 3.24 | 409.67 ± 26.03 | 393.06 ± 21.11 | 389.14 ± 35.85 | 409.67 ± 26.03 | 5967.02 ± 503.93 | 6241.15 ± 404.47 | 6247.34 ± 389.56 | 5967.02 ± 503.93 | 400 | 4200 | 4600 | 2930 | 179 ± 70.8 | 3.6 ± 1.8 | 
O=c1cc(-c2ccccc2)oc2cc(O[C@@H]3O[C@H](CO[C@@H]4O[C@H](CO)[C@@H](O)[C@H](O)[C@H]4O)[C@@H](O)[C@H](O)[C@H]3O)c(O)c(O)c12 [Oroxin B, oroxin B] | 37.76 ± 3.31 | 39.10 ± 2.32 | 41.95 ± 3.13 | 38.40 ± 1.50 | 393.06 ± 24.72 | 436.20 ± 27.56 | 430.23 ± 11.61 | 392.81 ± 19.18 | 5937.71 ± 352.01 | 6506.73 ± 286.20 | 6564.94 ± 412.78 | 6068.65 ± 216.91 | 1130 | 2120 | 2230 | 1990 | 238 ± 82.2 | 13.2 ± 2.4 | 
